{"source": "patent US20110070314A1", "about": "(priority 2009, published 2011)", "key": {"[1]": {"system": "U-87MG cells", "type": "cell-based, human"}, "[2]": {"system": "U373 cells", "type": "cell-based, human"}, "[3]": {"system": "T98G cells", "type": "cell-based, human"}, "[4]": {"system": "U138 cells", "type": "cell-based, human"}, "[5]": {"settings": "mouse, in vivo"}, "[6]": {"settings": "mouse, in vivo", "remark": "listed apart in the source"}, "[7]": {"system": "brain tumors", "settings": "human, in vivo"}, "[8]": {"system": "U-87MG orthotopic glioblastoma", "settings": "mouse, in vivo"}, "[9]": {"system": "U-87MG orthotopic glioblastoma", "settings": "mouse, in vivo", "remark": "listed apart in the source"}}}
{"substance": "sodium meta arsenite", "values": [{"measurement": "Anticancer effect (cell viability) vs control", "setting": "[1]", "result": "significant anticancer effects"}, {"measurement": "Dose dependence of anticancer effect", "setting": "[1]", "result": "dose-dependent anticancer effects"}, {"measurement": "Anticancer effect (cell viability) vs control", "setting": "[2]", "result": "significant anticancer effects"}, {"measurement": "Dose dependence of anticancer effect", "setting": "[2]", "result": "dose-dependent anticancer effects"}, {"measurement": "Anticancer effect (cell viability) vs control", "setting": "[3]", "result": "significant anticancer effects"}, {"measurement": "Dose dependence of anticancer effect", "setting": "[3]", "result": "dose-dependent anticancer effects"}, {"measurement": "Anticancer effect (cell viability) vs control", "setting": "[4]", "result": "significant anticancer effects"}, {"measurement": "Dose dependence of anticancer effect", "setting": "[4]", "result": "dose-dependent anticancer effects"}, {"measurement": "Crossing of the blood brain barrier", "setting": "[5]", "result": "can readily cross the blood brain barrier"}, {"measurement": "Adverse effects following oral and IV administration", "setting": "[6]", "result": "No adverse effects were observed"}, {"measurement": "Clinical signs during testing", "setting": "[6]", "result": "No clinical signs were observed"}, {"measurement": "MRI finding on brain tumor", "setting": "[7]", "result": "brain tumor was completely gone."}, {"measurement": "Side effects", "setting": "[7]", "result": "Pt # 1 did not find any particular"}, {"measurement": "Time until pain lessened", "setting": "[7]", "result": "side effects, and within 5 days them"}, {"measurement": "Effect on lung cancer", "setting": "[7]; iv", "result": "conditions appear to be stable."}, {"measurement": "Effect on tumor in the brain", "setting": "[7]; iv", "result": "the tumor in the brain disappeared"}, {"measurement": "Body weight difference between groups", "setting": "[8]", "result": "no significant difference"}, {"measurement": "Inhibition of tumor growth", "setting": "[8]; po, 1.25 mg/kg", "result": 28, "unit": "%"}, {"measurement": "Tumor mass", "setting": "[8]; po, 1.25 mg/kg", "result": "40.2±12.3", "unit": "mm^3"}, {"measurement": "MRI imaging of tumor mass", "setting": "[8]; po, 5 mg/kg", "result": "decrease of tumor mass"}, {"measurement": "Serum ALT and AST difference between the groups", "setting": "[9]", "result": "no significant difference"}, {"measurement": "Anticancer effect", "setting": "[9]; po, 10 mg/kg", "result": "no anticancer effect"}]}
